In patent US20210261971A1, “COMPOSITIONS AND METHODS FOR AMELIORATING TISSUE INJURY, ENHANCING LIVER REGENERATION AND STEM CELL THERAPIES” (UNIVERSITY OF SOUTHERN CALIFORNIA, priority 2018, published 2021):
“Also recorded” adds a separate entry of the source. Where two headings read alike, the source gives them in different places.

Columns and labels:
Format in all cases: in vivo, rat
[1] = test system: BM sprocs; experiment: Hepatic engraftment of GFP+ BM sprocs after PH (% GFP+ LSECs, EGFP bone marrow transplant)
Text: FIG. 7D illustrates the percentage of liver sinusoidal endothelial cells (LSECs) that are bone marrow-derived, i.e. derived from BM sprocs (y-axis labeled % GFP+ LSECs). Hepatic engraftment determined as the percentage of bone marrow-derived LSECs after PH is enhanced by MMP-9 ASO or intraportal MMP inhibitor, whereas systemic inhibition of MMP by doxycycline or intraperitoneal MMP inhibitor reduces hepatic engraftment of BM sprocs. Rats were transplanted with bone marrow from a transgenic EGFP rat to allow tracking of bone marrow cells. Rats were treated with one month of ASO, 2 days of doxycycline, or infusion with the MMP inhibitor followed by partial hepatectomy. On day 2 LSECs were isolated and the percentage of GFP+ LSECs was determined by flow cytometry.
Bone marrow transplantation. BM cells were obtained from one tibia and femur from the donor. Recipients underwent 1,000 cGy total body irradiation and were injected via tail vein with 50 million BM cells. Rats received oxytetracycline (200 mg/ml) diluted 1:1,000 in the drinking water starting two days before irradiation and continuing until one week after irradiation. BM was allowed to engraft for 2 months before use. BM from Lew-Tg(CAG-EGFP)ys Lewis rats was transplanted into wild-type Lewis rats and cells were tracked by GFP expression.
LSEC isolation. LSECs were isolated by collagenase perfusion, iodixanol density gradient centrifugation, and centrifugal elutriation, as previously described (22, 23). Yields averaged 86×10^6 cells per normal rat liver (range 69-95×10^6) with average viability of 94% (range 91-96%). Purity of the cells was 99%, as determined by uptake of formaldehyde-treated serum albumin (kind gift from Bard Smedsrod, University of Tromso, Tromso, Norway), a function specific to LSECs. Cells isolated by this protocol have an appropriate range of fenestrae organized in sieve plates.
(§1) Flow cytometry. Flow cytometry was performed using a FACSCalibur (BD Biosciences). Isotype control antibodies were used to determine appropriate gates, voltages, and compensation required for multivariate flow cytometry. Cell Quest Pro software was used for analysis

[2] = test system: MMP-9; experiment: Immunoblot of hepatic pro-MMP-9 and bone marrow extracellular fluid MMP-9/pro-MMP-9 after PH; conditions: 6 hours after PH
Protocol: Immunoblotting. Samples from freshly isolated liver were harvested using triple lysis buffer (TLB: 50 mM Tris base, 150 mM NaCl, 3 mM sodium azide, 12 mM sodium deoxycholate, 0.1% SDS, 1% Nonidet-P40) supplemented with 2 mM phenylmethylsulphonyl fluoride (PMSF), 1 mM sodium orthovanadate and 1% protease inhibitors cocktail (Santa Cruz sc-24948). Proteins were purified by centrifugation at 15,000 g at 4° C. for 10 min and quantified using DC™ Protein Assay Kit (BioRad). The samples obtained from bone marrow extracellular fluid were preserved in PBS. For MMP-9 analysis, 100 μg of total protein was used from each sample per lane and resolved on NUPAGE™ NOVEX™ 10% Bis-Tris Protein Gels using MOPS running buffer. Proteins were transferred onto 0.45 μm nitrocellulose membranes via electroblotting using XCell II™ Blot Module (Invitrogen), for 1 h, 30V. For SDF-1 and VEGF analysis, 75 μg of total protein was used from each sample per lane and resolved on NUPAGE™ NOVEX™ 4-12% Bis-Tris Protein Gels using MES running buffer. Proteins were transferred onto 0.2 μm nitrocellulose membranes via electroblotting using Trans-blot SD Semi-Dry Transfer Cell™ (Bio-rad), for 20 min, 25V. Membranes were blocked using NAP-BLOCKER™. […] Membrane digital images were acquired with the Odyssey Infrared Imaging System (LI-COR) and analyzed using the LI-COR IMAGE STUDIO™. […]

[3] = test system: Lewis rats; experiment: Liver histology for toxicity of MMP inhibitors given to controls
[4] = test system: BM sprocs (CD133+45+31+ cells); experiment: Recruitment of BM sprocs after PH: number in bone marrow and circulation by immunomagnetic selection and flow cytometry; conditions: for number of circulating CXCR7+ sprocs: 6 hours after PH
Protocol: Sproc isolation. BM and circulating sprocs were isolated by immunomagnetic selection for CD133 using a CD133 Cell Isolation Kit (Miltenyi Biotec, Auburn, Calif.) and separation with an autoMACS Pro (Miltenyi Biotec, Auburn, Calif.), followed by FACS sorting for CD45 and CD31 (FIG. 26, or Supporting Fig S1).
To determine the number of sprocs in the circulation and BM from Lewis rats 6 hours after partial hepatectomy, CD133+ cells were isolated by immunomagnetic selection for CD133 from peripheral blood or BM. Cell suspensions were preblocked with FcR blocking reagent and incubated for 60 minutes with antibodies to rat CD45 and CD31. CD133+45+31+ cells were quantified by flow cytometry. In some experiments cells were also stained with antibody to rat CXCR7, to identify CD133+45+31+CXCR7+ cells in the circulation.
as §1

[5] = test system: Lewis rats; experiment: Liver regeneration after two-thirds partial hepatectomy (PH): liver-to-body weight ratio, Ki-67 proliferation; conditions: for hepatocyte proliferation (ki-67) compared to respective control: day 2 after PH, intraportal infusion
Protocol: Partial (70%) hepatectomy was performed under general anesthesia with ketamine-xylazine (80-90 mg/kg ip). For 70% partial hepatectomy, the median and left lateral lobes were removed. Buprenorphine SR (1 mg/kg) was used postoperatively for analgesia.
Liver-selective MMP-9 inhibition: Knockdown of MMP-9 was achieved by injection of one of two MMP-9 antisense oligonucleotides that were a kind gift from Ionis Pharmaceuticals (Ions No 283953 and 283973, Carlsbad, Calif.; 20 mg/kg intraperitoneally twice weekly for 4 weeks.
Systemic MMP inhibition: Doxycycline (Sigma, St. Louis), 15 mg/kg i.g., was given twice daily starting 2 days before the relevant study. Control studies were performed with the same dose of a chemically modified tetracycline, isochlorotetracycline, which is only a weak MMP inhibitor. In other experiments, MMP-2/9 was inhibited by infusing 2-[(4-biphenylsulfonyl)amino]-3-phenyl-propionic acid, 100 μg/kg/h, intraperitoneally with an Alzet mini-osmotic pump (model 2001, Durect Corporation, Cupertino Calif.).
Deparaffinized 5 μm sections of liver were treated with Bond ER-2 antigen retrieval (Leica Biosystems, Buffalo Grove, Ill.) for 20 min. After preblocking for 10 min with Rodent Block R (Cat #RBR962G, Biocare, Pacheco, Calif.), sections were incubated with antibody against Ki-67 for 60 min. Immunohistochemistry was performed by incubating sections with rabbit-on-rodent HRP-Polymer (cat #RMR622G, Biocare) for 30 min. Slides were rinsed in Bond diaminobenzidine (Leica Biosystems) for 10 min. After counterstaining with Bond hematoxylin, slides were dehydrated and covered using a coverslip with resinous mounting medium (Leica Biosystems).
Ki-67 positive cells were determined using photographs taken with a 20×-objective in 15 lobules per rat, n=3. To assess the percentage of proliferating hepatocytes and non-parenchymal cells, slides were coded and the percentage Ki-67 positive cells was determined blindly by X.W. To determine zonation of proliferating cells, each lobule was divided into three even fields and the total number of ki-67 positive cells/field was counted.

[6] = test system: infused allogeneic sprocs; experiment: Model of stem cell therapy: engraftment of infused GFP+ allogeneic sprocs after PH; conditions: 3 months; control group 1.5%
Protocol: FIG. 8 graphically illustrates the percent LSECs as a function of engraftments of infused allogenic sprocs, and examines the concept that impairment of BM release of sprocs will favor engraftment of exogenously infused progenitor cells. […] When the percentage of cells derived from the GFP+ allogeneic progenitors was examined at 3 months, 1.5% were GFP+ in the control group versus 14% in the doxycycline group (data not shown). Method: rats were pre-treated with 2 days of doxycycline, 15 mg/kg intra-gastrically twice daily, followed by partial hepatectomy. 1 million sprocs were isolated from the livers of GFP+ rats and infused by tail vein injection. On day 2 and after 3 months LSECs were isolated and the number of GFP+ cells was determined by flow cytometry. Increased ischemia-reperfusion injury in Non-Alcoholic Fatty Liver Disease (NAFLD) due to impaired sdf-1 signaling to bone marrow sprocs can be attenuated by liver-selective MMP inhibition: Systemic MMP inhibition: Doxycycline (Sigma, St. Louis), 15 mg/kg i.g., was given twice daily starting 2 days before the relevant study. […] Purity of the cells was 99%, as determined by uptake of formaldehyde-treated serum albumin (kind gift from Bard Smedsrod, University of Tromso, Tromso, Norway), a function specific to LSECs. […]

Question: What does the source list for O=C(O)[C@@H](Cc1ccccc1)NS(=O)(=O)c1ccc(-c2ccccc2)cc1 [MMP-2/9 inhibitor, (2R)-2-[(4-Biphenylylsulfonyl)amino]-3-phenylpropionic acid]?
Answer: hepatic engraftment of BM sprocs (% GFP+ LSECs) ([1]; intraperitoneal): reduced; reduction of hepatic engraftment of BM sprocs compared to control/PH ([1]; intraperitoneal): 36%; hepatic engraftment of BM sprocs (% GFP+ LSECs) ([1]; intraperitoneal, listed as MMP inhibitor): reduces; hepatic engraftment of BM sprocs (% GFP+ LSECs) ([1]; intraportal): enhanced; increase of hepatic engraftment of GFP+ BM sprocs compared to control/PH ([1]; intraportal): 45%; increase of hepatic MMP-9 protein expression after PH ([2]; intraperitoneal): abrogated the increase in hepatic MMP-9 expression; increase of hepatic MMP-9 protein expression after PH ([2]; intraportal): abrogated the increase in hepatic MMP-9 expression; hepatotoxicity (histology) ([3]; intraportal): no evidence of toxicity; also recorded: neither doxycycline nor intraportal MMP-2/9 inhibitor given to controls was hepatotoxic; number of circulating CXCR7+ sprocs ([4]; intraperitoneal): reduced; number of circulating CXCR7+ sprocs ([4]; intraportal infusion): increased; reduction of CXCR7+ sprocs mobilized to the circulation ([4]; after PH, intraperitoneal): 86%; increase of CXCR7+ sprocs in the circulation ([4]; after PH, intraportal infusion): 110%; hepatocyte proliferation (ki-67) compared to respective control [5]: enhances; hepatocyte proliferation (ki-67) compared to respective control ([5]; listed as MMPi): enhanced

Question: Which “reduction of hepatic engraftment of BM sprocs compared to control/PH” value ([1]; systemic) does the source give for C[C@H]1c2cccc(O)c2C(=O)C2=C(O)[C@]3(O)C(=O)C(C(N)=O)=C(O)[C@@H](N(C)C)[C@@H]3[C@@H](O)[C@@H]21 [doxycycline, Doxycycline] here?
Answer: 58%

Question: And the “hepatotoxicity (histology)” value [3]?
Answer: neither doxycycline nor intraportal MMP-2/9 inhibitor given to controls was hepatotoxic

Question: What about the “hepatotoxicity (histology)” value ([3]; listed as coxycycline) of the same compound?
Answer: no evidence of toxicity

Question: What about the “percentage of GFP+ LSECs derived from infused allogeneic progenitors” value [6] of the same compound?
Answer: 14%

Question: What about the “reduction of CXCR7+ sprocs mobilized to the circulation” value ([4]; after PH, systemic) of the same compound?
Answer: 90%

Question: What about the “reduction of mobilization of BM sprocs to the circulation” value ([4]; after PH, systemic) of the same compound?
Answer: 72%

Question: What about the “reduction of liver-to-body weight ratio compared to its solvent control” value ([5]; day 5 after two-thirds PH, doxycycline for 2 days before PH (systemic)) of the same compound?
Answer: 29%

Question: Which “hepatic engraftment of BM sprocs (% GFP+ LSECs)” value [1] does the source give for isochlorotetracycline here?
Answer: no effect
